From patent publication US12527804B2, “Microemulsion delivery systems for alcohol-soluble species including DHEA, pregnenolone, and chrysin for reducing menopausal symptoms” (Quicksilver Scientific, Inc., priority 2021, dated 2026)
≈ marks a conversion by molar mass, not a printed value. Where two headings read alike, the source gives them in different places.

Legend:
[1] = Solubility of DHEA in ethanol and MCT oil; format: physicochemical
From the text: An alcohol-soluble species is a species that is insoluble in water and has a greater solubility in ethanol than in medium chain triglyceride (MCT) oils. […] Alcohol-soluble species are preferably pharmacologically active, more preferably are a drug or a supplement, and neither include nor are water. Thus, liquids and solids may exist that technically are soluble in alcohol, but because they also are soluble in water or more or equivalently soluble in MCT oils than in ethanol are not “alcohol-soluble species”.
Solubilized means that the alcohol-soluble species to be delivered is in the solution of the droplet. […] Thus, if either average particle diameters greater than 200 nm or precipitated crystals visible to the naked eye form, the alcohol-soluble species is not solubilized in the solution of the droplet. If an alcohol-soluble species is not solubilized in the solution, it is insoluble in the solution. In many respects, solubility may be thought of as a concentration dependent continuum. For example, the following descriptive terms may be used to express solubility of a solute in a solvent (grams solid/mL of solvent) at 25 degrees Celsius: […]

[2] = test system: peri- and postmenopausal subjects; assay: Combination therapy of MOIW microemulsion with progesterone, menopausal symptoms; format: in vivo, human; conditions: most perimenopausal subjects, administered daily in combination with MOIW microemulsion
Procedure: Dosing for this combination therapy includes use of the present MOIW microemulsion as previously described with the addition of progesterone. For use in the alleviation of menopausal symptoms, from 5 mg to 18 mg of progesterone is preferably administered daily, with 8 mg to 16 mg of progesterone providing a therapeutically effective dose for postmenopausal subjects and with 8 mg to 10 mg of progesterone providing a therapeutically effective dose for perimenopausal subjects. A therapeutically effective dose for most perimenopausal subjects was determined to be approximately 8 mg.
A preferred dosing for this combination therapy includes intra-oral administration of the MOIW microemulsion ante meridiem with topical administration of the thickened MOIW post meridiem. For perimenopausal subjects using intermittent dosing of the MOIW microemulsion, the same intermittent dosing is also preferred for the thickened MOIW microemulsion progesterone topical.

| Structure (SMILES) | solubility ([1]; ethanol, organic solvent or mixture, read-out: solubility in ethanol) | solubility ([1]; medium chain triglyceride (MCT) oil, oil or lipid, MCT oil, read-out: solubility in MCT oil) | therapeutically effective dose of progesterone [2] |
| --- | --- | --- | --- |
| C[C@]12CC[C@H](O)CC1=CC[C@@H]1[C@@H]2CC[C@]2(C)C(=O)CC[C@@H]12 [DHEA, dehydroepiandrosterone (3-beta-hydroxyandrosteron-5-en-17-one)] | ~150 mg/mL (≈ 520 mM) | ~10 mg/mL (≈ 34.7 mM) | – |
| CC(=O)[C@H]1CC[C@H]2[C@@H]3CCC4=CC(=O)CC[C@]4(C)[C@H]3CC[C@]12C [progesterone] | – | – | approximately 8 mg |
